The source of these data is patent publication US4315003A, “Compositions containing azo compounds and use thereof for therapeutic treatment” (priority 1979, dated 1982).

Structures are written as SMILES.

Data set [1] concerns rats. Nature of the data set: Diuretic action in rats (urinary volume during 5 hours after oral administration). As to conditions: urinary volume 5 hours, control = 100%. It is filed as in vivo, rat (male, Wistar strain). On the procedure: A group of 5 male rats of Wistar strain having each a body weight ranging from 180 to 200 grams was used for each test compound. The rats were fasted overnight and then abstained from water two hours before the administration of the test compound. The test compound was prepared by suspending the compound in a 5% arabic gum-saline solution and administered orally to the rats in the amount of 25 ml per kg. of body weight.
The urine was collected during 5 hours after administration and its volume was measured. The diuretic actions of the test compounds were calculated as the urinary volume of the control group where no test compound was administered being as 100%.

The subject of another data set is rabbit eye mucosa. Nature of the data set: Therapeutic action on hyperemia of rabbit eye mucosa (induced by 0.03 N sodium hydroxide). It is filed as in vivo, rabbit (male Japanese albino). On the set-up: key: conjunctival erythema score per Fukui and Ikemoto standards. As to conditions: for Average Erythema Score After Treatment: 50 μl instilled, before treatment 1, solvent alone 1; for Average Erythema Score Before Treatment: baseline. On the procedure:
Therapeutic Action on Hyperemia of Rabbit Eye Mucosa
100 μl of 0.03 N sodium hydroxide was instillated into one eye to induce hyperemia in male Japanese albino rabbits weighting about 3 Kg. A group of 3 rabbits was used for test, which were caused an erythema score 1 on their conjunctive based on the standards of Fukui and Ikemoto (Gendai-no-Rinshao, 4, pp. 277 (1970)). The test compound was dissolved in a 10% NIKKOL HCO-60 (trademark: Nikko Chemical Co., Ltd.) and instilled to the test rabbit at a rate of 50 μl.

Data set [2] deals with isolated guinea-pig atria. Description: Cardiotropic action in isolated guinea-pig atria. As to conditions: Cavia porcellus, 30° C.; for inhibition at 3 µg/mL / activation at 3 µg/mL: 3 μg/ml; for inhibition at 1 µg/mL / activation at 1 µg/mL: 1 μg/ml. On the set-up: species or system guinea-pig (male). On the procedure: Cardiotropic Action in Isolated Guinea-Pig Atria
The isolated atria from male Guinea-Pigs weighing about 350 grams were hanged in an organ bath filled with a Krebs-Henselite's solution and bubbled with a mixed gas (5% CO2 and 95% O2) at 30° C. A solution of the test compound in dimethylsulfoxide was added to the bath. The contractile force and beats were then measured and calibrated into a percentage increase of the contractile force and a percentage decrease of the beats.

Another data set can be described thus: Solubility. It is filed as physicochemical.
The nature of a further data set: Acute toxicity in mice. The following applies: mouse, in vivo, deaths for seven days. The protocol: A group of 10 male mice of ddY strain weighing about 25 grams was administered orally or intraperitoneally with a suspension of the test compound in a 5% arabic gum solution in the amount of 10 ml per kg. of body weight. The LD50 values were calculated by means of the Wilcoxon-Litchfield method on the number of mice died for seven days after administration.

Data set [3] has as its system rats. Nature of the data set: Hypertensive action in rats (blood pressure, oral, without anesthesia). It is filed as in vivo, rat. On the procedure:
Hypertensive Action in Rats
A suspension of the test compound in a 5% arabic gum solution was orally to rats catheterized before more than 24 hours according to Mizokami et al. (Nihon Taishitsugaku Zasshi, 32, p.p. 59-63 (1969)).

Where [4] appears, read: read-out: Percentage Decrease in Beats.
[5] abbreviates: read-out: Percentage Increase of Contractile Force.

In the case of `NS(=O)(=O)c1cc(C(=O)O)c(NCc2ccco2)cc1Cl` [furosemide, reference compound], the “Diuretic Activity” value in the data set on rats [1] (5.0 mg/kg) was determined as 113%; in the data set on rats [1] (10.0 mg/kg) it was 188%; in the data set on rats [1] (20.0 mg/kg), 292%.
In the case of `Nc1nc(N)c2nc(-c3ccccc3)c(N)nc2n1` [triamterene, reference compound], the “Diuretic Activity” value in the data set with rats [1] (10.0 mg/kg) came out at 192%; with rats [1] (20.0 mg/kg) it was 242%.
Broadly, the LD50 is the dose at which mortality reaches 50%. Turning to `COc1ccc(I)cc1N=Nc1ncc[nH]1` [Compound D], the “Diuretic Activity” value in the data set on rats [1] (5.0 mg/kg) is given as 138%. Moreover, the “Diuretic Activity” value in the data set on rats [1] (10.0 mg/kg) was found to be 183%. In addition, the “Average Erythema Score After Treatment” value with rabbit eye mucosa (0.2%) came to 0.5. In the data set with rabbit eye mucosa, the “Average Erythema Score Before Treatment” value came out at 1. Moreover, the inhibition at 3 µg/mL in data set [2] (setting [4]) amounted to 3.6%. In addition, the activation at 3 µg/mL in data set [2] (setting [5]) was 6.9%. Also, in the data set “Solubility”, the Solubility in acetone entry is “readily soluble”, the Solubility in hexane result is given as “sparingly soluble”, the Solubility in methanol result is recorded as “readily soluble” and the Solubility in water entry is listed as “sparingly soluble”. Also, the LD50 at 168 h in the data set “Acute toxicity in mice” (ip) was more than 1000 mg/kg. This molecule also returned an LD50 at 168 h in “Acute toxicity in mice” (po, orally) of more than 1500 mg/kg. For the same molecule, in the data set with rats [3] (5 mg/kg), the “Variation in Blood Pressures, Duration Period” value (from here on “Variation … Duration Period”) came out at 50 min and the “Variation in Blood Pressures, Percentage Increase” value (from here on “Variation … Percentage Increase”) is reported as 35%.
Consider `COc1ccc(Br)cc1N=Nc1ncc[nH]1` [Compound C, 2-[(2-methoxy-5-bromophenyl)azo]-1H-imidazole], for which the “Diuretic Activity” value in the data set on rats [1] (5.0 mg/kg) is listed as 171%. Moreover, in the data set with rats [1] (10.0 mg/kg), the “Diuretic Activity” value amounted to 283%. Besides, the “Average Erythema Score After Treatment” value with rabbit eye mucosa (0.2%) is 0.33. Further, the “Average Erythema Score Before Treatment” value in the data set with rabbit eye mucosa stood at 1. Further, the inhibition at 3 µg/mL in data set [2] (setting [4]) is 4.2%. In data set [2] (setting [5]), the activation at 3 µg/mL came out at 7.4%. In addition, in the data set “Solubility”, the Solubility in acetone entry is “readily soluble”, the Solubility in hexane entry is “sparingly soluble”, the Solubility in methanol result is given as “readily soluble” and the Solubility in water result is listed as “sparingly soluble”. The molecule also gave a 50% lethal dose (LD50) at 168 h in the data set “Acute toxicity in mice” (ip) of more than 1000 mg/kg. Further, in the data set “Acute toxicity in mice” (po, orally), the LD50 at 168 h is more than 1500 mg/kg. In addition, in the data set with rats [3] (5 mg/kg), the “Variation … Duration Period” value was 70 min and the “Variation … Percentage Increase” value was determined as 40%.
As for `COc1ccc(F)cc1N=Nc1ncc[nH]1` [Compound B, 2-[(2-methoxy-5-fluorophenyl)azo]-1H-imidazole], in the data set on rats [1] (1.0 mg/kg), the “Diuretic Activity” value turned out to be 154%. In the data set with rats [1] (2.0 mg/kg), the “Diuretic Activity” value came out at 275%. The “Average Erythema Score After Treatment” value in the data set with rabbit eye mucosa (0.05%) was 0.33. Further, the “Average Erythema Score Before Treatment” value in the data set on rabbit eye mucosa was determined as 1. Besides, the inhibition at 1 µg/mL in data set [2] (setting [4]) turned out to be 2.3%. For the same molecule, in data set [2] (setting [5]), the activation at 1 µg/mL came to 11.5%. Also, in the data set “Solubility”, the Solubility in acetone result was “readily soluble”, the Solubility in hexane result was “less soluble”, the Solubility in methanol result is listed as “readily soluble” and the Solubility in water result is “less soluble”. This molecule gave a median lethal dose (LD50) at 168 h in the data set “Acute toxicity in mice” (ip) of 322 mg/kg. The LD50 at 168 h in the data set “Acute toxicity in mice” (po, orally) was found to be 462 mg/kg. Besides, in the data set on rats [3] (2 mg/kg), the “Variation … Duration Period” value came to 65 min and the “Variation … Percentage Increase” value is on record as 42%.
For `COc1ccccc1N=Nc1ncc[nH]1` [Compound E, 2-[(2-methoxyphenyl)azo]-1H-imidazole], the “Diuretic Activity” value in the data set with rats [1] (10.0 mg/kg) is on record as 175%. For the same molecule, the “Diuretic Activity” value in the data set on rats [1] (20.0 mg/kg) was found to be 206%. The “Average Erythema Score After Treatment” value with rabbit eye mucosa (0.1%) is 0.5. Also, in the data set with rabbit eye mucosa, the “Average Erythema Score Before Treatment” value was found to be 1. The inhibition at 10 µg/mL in data set [2] (10 μg/ml, read-out: Percentage Decrease in Beats) was 2.2%. Moreover, the activation at 10 µg/mL in data set [2] (10 μg/ml, read-out: Percentage Increase of Contractile Force) is 5.7%. In the data set “Solubility”, the Solubility in acetone entry is “readily soluble”, the Solubility in hexane result is “sparingly soluble”, the Solubility in methanol result is on record as “readily soluble” and the Solubility in water entry is “sparingly soluble”. In addition, the LD50 at 168 h in “Acute toxicity in mice” (ip) was determined as 630 mg/kg. The molecule further showed a 50% lethal dose (LD50) at 168 h in “Acute toxicity in mice” (po, orally) of 1010 mg/kg. Moreover, in the data set on rats [3] (10 mg/kg), the “Variation … Duration Period” value is 85 min and the “Variation … Percentage Increase” value is on record as 52%.
For `COc1ccc(Cl)cc1N=Nc1ncc[nH]1` [Compound A, 2-[(2-methoxy-5-chlorophenyl)azo]-1H-imidazole], the “Diuretic Activity” value in the data set on rats [1] (0.5 mg/kg) came to 133%. Besides, the “Diuretic Activity” value in the data set with rats [1] (1.0 mg/kg) was found to be 183%. Further, the “Diuretic Activity” value in the data set on rats [1] (2.0 mg/kg) is 329%. For the same molecule, the “Average Erythema Score After Treatment” value in the data set on rabbit eye mucosa (0.05%) stood at 0.33. Further, the “Average Erythema Score Before Treatment” value in the data set on rabbit eye mucosa is on record as 1. Further, the inhibition at 1 µg/mL in data set [2] (setting [4]) came to 5.4%. Further, in data set [2] (setting [5]), the activation at 1 µg/mL was 15.4%. Moreover, in the data set “Solubility”, the Solubility in acetone entry is reported as “readily soluble”, the Solubility in hexane entry is listed as “less soluble”, the Solubility in methanol result was “readily soluble” and the Solubility in water result was “less soluble”. In “Acute toxicity in mice” (ip), this molecule gave an LD50 at 168 h of 795 mg/kg. Moreover, the 50% lethal dose (LD50) at 168 h in the data set “Acute toxicity in mice” (po, orally) was found to be 1280 mg/kg. In the data set on rats [3] (1 mg/kg), the “Variation … Duration Period” value is 55 min and the “Variation … Percentage Increase” value was 49%.
